Test results: ChEMBL document CHEMBL1156181, “B-Raf kinase inhibitors: hit enrichment through scaffold hopping” (Bioorg Med Chem Lett, 2010)

Legend:
HT-29 = test: Growth inhibition of human HT-29 cells; type: functional, cell-based
[1] = biological target: T1, Tyrosine-protein kinase ITK/TSK (Homo sapiens, UniProt Q08881); test: Inhibition of ITK
T1 sequence (Q08881 whole entry): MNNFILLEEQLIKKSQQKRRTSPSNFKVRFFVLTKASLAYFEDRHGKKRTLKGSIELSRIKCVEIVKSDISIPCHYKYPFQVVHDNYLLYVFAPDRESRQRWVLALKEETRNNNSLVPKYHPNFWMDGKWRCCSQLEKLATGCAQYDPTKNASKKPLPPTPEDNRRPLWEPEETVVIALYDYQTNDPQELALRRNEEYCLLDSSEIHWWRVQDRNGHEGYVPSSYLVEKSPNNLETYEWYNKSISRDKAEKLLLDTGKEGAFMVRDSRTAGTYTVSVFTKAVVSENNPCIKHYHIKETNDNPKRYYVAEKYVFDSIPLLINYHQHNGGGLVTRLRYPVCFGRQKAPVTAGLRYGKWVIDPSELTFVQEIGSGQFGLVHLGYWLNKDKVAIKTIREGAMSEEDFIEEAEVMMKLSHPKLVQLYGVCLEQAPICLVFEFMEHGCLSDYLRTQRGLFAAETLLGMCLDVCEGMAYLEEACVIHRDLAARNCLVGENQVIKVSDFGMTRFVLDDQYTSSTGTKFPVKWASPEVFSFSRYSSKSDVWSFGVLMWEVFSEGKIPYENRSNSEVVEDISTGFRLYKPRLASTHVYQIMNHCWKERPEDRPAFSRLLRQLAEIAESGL

[2] = biological target: T2, Inhibitor of nuclear factor kappa-B kinase subunit beta (Homo sapiens, UniProt O14920); test: Inhibition of IKK2
T2 sequence (O14920 whole entry): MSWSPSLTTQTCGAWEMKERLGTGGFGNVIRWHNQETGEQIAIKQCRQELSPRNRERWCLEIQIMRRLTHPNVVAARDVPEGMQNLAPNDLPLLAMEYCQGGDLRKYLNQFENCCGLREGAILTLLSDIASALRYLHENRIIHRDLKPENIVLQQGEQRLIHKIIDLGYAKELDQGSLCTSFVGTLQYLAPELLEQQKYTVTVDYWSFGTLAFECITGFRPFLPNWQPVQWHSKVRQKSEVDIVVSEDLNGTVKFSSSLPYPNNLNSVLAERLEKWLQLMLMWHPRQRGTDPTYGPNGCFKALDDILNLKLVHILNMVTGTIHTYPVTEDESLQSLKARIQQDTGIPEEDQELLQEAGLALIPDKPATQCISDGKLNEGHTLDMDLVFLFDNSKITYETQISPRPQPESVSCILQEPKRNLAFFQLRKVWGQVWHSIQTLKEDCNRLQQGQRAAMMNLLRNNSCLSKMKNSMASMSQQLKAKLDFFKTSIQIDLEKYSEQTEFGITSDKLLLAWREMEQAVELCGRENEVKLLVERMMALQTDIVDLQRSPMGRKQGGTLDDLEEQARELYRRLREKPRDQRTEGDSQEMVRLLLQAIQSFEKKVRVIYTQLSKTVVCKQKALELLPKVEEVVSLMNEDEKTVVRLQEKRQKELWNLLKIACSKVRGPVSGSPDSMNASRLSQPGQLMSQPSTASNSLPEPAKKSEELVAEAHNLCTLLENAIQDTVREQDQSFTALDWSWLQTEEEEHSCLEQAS

[3] = biological target: Cyclin-dependent kinase 4 (Homo sapiens, UniProt P11802); test: Inhibition of CDK4
[4] = biological target: Proto-oncogene tyrosine-protein kinase Src (Homo sapiens, UniProt P12931); test: Inhibition of SRC
[5] = biological target: Protein kinase C theta type (Homo sapiens, UniProt Q04759); test: Inhibition of PKCtheta
Caco-2 = test: Growth inhibition of human Caco-2 cells; type: functional, cell-based
[6] = biological target: Phosphatidylinositol 4,5-bisphosphate 3-kinase catalytic subunit alpha isoform (Homo sapiens, UniProt P42336); test: Inhibition of PI3Kalpha
[7] = biological target: Tyrosine-protein kinase Lyn (Homo sapiens, UniProt P07948); test: Inhibition of LYN
[8] = Growth inhibition of human WM266.4 cells; type: functional, cell-based; conditions: WM 266-4
A-375 = test: Growth inhibition of human A375 cells; type: functional, cell-based
LoVo = test: Growth inhibition of human LoVo cells; type: functional, cell-based
[9] = biological target: Serine/threonine-protein kinase mTOR (Homo sapiens, UniProt P42345); test: Inhibition of mTOR
[10] = biological target: Tyrosine-protein kinase BTK (Homo sapiens, UniProt Q06187); test: Inhibition of BTK
[11] = biological target: RAC-alpha serine/threonine-protein kinase (Homo sapiens, UniProt P31749); test: Inhibition of AKT
[12] = biological target: Serine/threonine-protein kinase B-raf (Homo sapiens, UniProt P15056); test: Inhibition of B-Raf
Sequence of Serine/threonine-protein kinase B-raf (P15056 whole entry): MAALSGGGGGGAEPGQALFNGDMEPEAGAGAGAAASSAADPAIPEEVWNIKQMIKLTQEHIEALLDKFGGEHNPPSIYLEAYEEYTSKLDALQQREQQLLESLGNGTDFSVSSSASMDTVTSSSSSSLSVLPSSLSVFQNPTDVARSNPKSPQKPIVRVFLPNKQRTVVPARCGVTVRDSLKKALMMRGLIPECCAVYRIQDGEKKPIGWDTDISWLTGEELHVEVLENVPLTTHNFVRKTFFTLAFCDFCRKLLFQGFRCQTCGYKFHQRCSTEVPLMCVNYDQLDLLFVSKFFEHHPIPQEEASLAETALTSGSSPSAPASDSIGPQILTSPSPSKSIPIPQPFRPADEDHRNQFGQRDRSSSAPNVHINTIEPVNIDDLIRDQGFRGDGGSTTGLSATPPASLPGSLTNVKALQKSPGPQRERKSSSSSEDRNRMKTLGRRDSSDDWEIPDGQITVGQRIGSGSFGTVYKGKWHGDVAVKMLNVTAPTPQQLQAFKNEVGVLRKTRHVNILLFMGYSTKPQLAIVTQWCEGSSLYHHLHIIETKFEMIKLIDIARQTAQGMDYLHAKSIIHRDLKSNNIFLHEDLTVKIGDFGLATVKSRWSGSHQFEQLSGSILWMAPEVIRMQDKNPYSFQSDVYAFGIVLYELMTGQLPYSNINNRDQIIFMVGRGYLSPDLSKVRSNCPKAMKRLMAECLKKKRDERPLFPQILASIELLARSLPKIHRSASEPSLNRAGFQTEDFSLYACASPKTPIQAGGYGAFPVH

Sequence of Cyclin-dependent kinase 4 (P11802 whole entry): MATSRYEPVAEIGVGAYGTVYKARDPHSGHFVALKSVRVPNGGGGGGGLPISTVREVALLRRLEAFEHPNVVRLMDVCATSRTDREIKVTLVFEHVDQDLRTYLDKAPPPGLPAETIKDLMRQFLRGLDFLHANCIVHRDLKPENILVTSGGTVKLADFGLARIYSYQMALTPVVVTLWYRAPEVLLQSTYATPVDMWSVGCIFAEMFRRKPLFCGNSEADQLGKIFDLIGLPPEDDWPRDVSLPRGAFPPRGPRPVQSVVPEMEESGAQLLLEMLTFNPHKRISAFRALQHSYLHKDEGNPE
Sequence of Proto-oncogene tyrosine-protein kinase Src (P12931 2-536 limits assumed): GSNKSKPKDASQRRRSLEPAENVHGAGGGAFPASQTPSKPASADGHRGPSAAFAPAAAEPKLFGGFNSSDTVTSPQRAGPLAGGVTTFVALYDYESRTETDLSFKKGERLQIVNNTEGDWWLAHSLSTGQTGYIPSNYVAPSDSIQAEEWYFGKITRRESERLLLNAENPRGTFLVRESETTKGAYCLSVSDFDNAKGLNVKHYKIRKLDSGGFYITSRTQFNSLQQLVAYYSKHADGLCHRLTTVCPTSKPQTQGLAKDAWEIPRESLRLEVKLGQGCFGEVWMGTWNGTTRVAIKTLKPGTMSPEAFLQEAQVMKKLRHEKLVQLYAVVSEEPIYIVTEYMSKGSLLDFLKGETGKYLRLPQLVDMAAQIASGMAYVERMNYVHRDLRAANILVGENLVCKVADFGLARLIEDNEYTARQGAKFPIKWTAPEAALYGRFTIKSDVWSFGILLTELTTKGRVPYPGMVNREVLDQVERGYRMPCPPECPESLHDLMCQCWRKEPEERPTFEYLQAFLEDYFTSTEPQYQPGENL
Sequence of Phosphatidylinositol 4,5-bisphosphate 3-kinase catalytic subunit alpha isoform (P42336 whole entry, canonical isoform): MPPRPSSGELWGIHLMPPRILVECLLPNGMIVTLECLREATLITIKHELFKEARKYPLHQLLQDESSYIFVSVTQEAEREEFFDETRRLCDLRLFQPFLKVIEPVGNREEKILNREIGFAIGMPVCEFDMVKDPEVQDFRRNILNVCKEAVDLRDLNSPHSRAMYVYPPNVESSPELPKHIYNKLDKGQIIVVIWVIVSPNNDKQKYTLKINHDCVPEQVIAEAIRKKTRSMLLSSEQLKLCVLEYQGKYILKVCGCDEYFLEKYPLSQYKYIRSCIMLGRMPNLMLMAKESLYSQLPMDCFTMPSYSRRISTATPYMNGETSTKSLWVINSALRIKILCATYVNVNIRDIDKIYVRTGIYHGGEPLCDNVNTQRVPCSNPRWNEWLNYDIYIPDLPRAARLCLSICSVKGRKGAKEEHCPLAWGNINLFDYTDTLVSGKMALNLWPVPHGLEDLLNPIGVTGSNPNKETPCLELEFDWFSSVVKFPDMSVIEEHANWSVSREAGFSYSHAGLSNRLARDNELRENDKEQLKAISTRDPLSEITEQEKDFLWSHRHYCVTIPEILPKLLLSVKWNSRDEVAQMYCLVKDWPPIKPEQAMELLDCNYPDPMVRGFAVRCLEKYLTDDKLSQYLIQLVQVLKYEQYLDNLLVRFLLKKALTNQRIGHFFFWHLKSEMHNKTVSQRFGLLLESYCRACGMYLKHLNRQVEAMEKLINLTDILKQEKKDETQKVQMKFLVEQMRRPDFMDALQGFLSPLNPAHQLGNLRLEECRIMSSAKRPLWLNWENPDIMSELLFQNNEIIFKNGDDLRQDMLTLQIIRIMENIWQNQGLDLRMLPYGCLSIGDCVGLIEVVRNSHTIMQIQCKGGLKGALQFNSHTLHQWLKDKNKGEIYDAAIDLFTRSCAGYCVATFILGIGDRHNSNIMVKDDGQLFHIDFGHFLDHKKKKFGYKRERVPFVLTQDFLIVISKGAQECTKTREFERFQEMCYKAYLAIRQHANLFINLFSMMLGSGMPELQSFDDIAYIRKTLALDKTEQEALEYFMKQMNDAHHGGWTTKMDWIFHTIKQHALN
Sequence of Tyrosine-protein kinase BTK (Q06187 whole entry): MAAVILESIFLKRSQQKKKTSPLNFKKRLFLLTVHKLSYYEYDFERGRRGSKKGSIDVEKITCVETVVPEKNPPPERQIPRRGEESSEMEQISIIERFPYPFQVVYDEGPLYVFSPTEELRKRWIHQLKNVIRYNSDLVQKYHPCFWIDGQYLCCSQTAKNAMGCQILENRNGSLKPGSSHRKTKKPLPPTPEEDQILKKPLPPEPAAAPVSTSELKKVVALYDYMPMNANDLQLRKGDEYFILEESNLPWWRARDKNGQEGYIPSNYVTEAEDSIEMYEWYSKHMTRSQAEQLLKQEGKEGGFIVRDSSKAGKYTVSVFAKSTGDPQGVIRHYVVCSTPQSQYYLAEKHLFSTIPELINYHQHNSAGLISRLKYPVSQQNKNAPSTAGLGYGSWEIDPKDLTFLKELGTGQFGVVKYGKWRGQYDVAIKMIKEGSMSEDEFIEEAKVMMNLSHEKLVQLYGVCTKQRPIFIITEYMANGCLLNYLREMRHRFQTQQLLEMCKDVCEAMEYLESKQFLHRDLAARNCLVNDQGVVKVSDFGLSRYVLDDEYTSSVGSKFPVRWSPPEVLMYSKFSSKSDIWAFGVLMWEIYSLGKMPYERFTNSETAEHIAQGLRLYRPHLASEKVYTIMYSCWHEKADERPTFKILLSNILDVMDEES
Sequence of RAC-alpha serine/threonine-protein kinase (P31749 whole entry): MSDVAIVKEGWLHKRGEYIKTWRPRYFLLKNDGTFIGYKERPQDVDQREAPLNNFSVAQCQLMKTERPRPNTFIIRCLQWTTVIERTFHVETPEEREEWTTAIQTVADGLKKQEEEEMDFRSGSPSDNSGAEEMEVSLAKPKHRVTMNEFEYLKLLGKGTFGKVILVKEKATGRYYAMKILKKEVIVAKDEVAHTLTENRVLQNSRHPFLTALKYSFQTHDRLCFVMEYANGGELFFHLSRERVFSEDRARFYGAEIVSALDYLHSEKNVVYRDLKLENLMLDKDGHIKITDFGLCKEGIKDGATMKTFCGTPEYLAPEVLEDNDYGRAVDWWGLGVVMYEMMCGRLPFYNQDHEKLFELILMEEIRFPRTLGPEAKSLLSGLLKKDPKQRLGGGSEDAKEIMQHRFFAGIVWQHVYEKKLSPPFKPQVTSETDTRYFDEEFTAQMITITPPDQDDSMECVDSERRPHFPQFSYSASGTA
Sequence of Tyrosine-protein kinase Lyn (P07948 whole entry): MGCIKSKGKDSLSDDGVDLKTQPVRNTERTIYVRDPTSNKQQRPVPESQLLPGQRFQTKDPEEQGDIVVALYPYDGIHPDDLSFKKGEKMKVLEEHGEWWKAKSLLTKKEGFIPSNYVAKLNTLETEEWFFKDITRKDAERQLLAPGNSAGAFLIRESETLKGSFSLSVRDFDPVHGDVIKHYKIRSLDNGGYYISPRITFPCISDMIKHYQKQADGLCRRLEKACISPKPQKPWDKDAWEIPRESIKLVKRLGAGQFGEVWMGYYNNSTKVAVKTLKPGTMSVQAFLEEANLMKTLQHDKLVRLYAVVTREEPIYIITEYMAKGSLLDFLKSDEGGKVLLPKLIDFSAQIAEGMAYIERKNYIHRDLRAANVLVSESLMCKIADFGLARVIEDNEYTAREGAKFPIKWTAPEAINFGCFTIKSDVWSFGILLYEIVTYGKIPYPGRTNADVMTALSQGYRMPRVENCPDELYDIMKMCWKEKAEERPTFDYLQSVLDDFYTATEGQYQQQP
Sequence of Protein kinase C theta type (Q04759 whole entry): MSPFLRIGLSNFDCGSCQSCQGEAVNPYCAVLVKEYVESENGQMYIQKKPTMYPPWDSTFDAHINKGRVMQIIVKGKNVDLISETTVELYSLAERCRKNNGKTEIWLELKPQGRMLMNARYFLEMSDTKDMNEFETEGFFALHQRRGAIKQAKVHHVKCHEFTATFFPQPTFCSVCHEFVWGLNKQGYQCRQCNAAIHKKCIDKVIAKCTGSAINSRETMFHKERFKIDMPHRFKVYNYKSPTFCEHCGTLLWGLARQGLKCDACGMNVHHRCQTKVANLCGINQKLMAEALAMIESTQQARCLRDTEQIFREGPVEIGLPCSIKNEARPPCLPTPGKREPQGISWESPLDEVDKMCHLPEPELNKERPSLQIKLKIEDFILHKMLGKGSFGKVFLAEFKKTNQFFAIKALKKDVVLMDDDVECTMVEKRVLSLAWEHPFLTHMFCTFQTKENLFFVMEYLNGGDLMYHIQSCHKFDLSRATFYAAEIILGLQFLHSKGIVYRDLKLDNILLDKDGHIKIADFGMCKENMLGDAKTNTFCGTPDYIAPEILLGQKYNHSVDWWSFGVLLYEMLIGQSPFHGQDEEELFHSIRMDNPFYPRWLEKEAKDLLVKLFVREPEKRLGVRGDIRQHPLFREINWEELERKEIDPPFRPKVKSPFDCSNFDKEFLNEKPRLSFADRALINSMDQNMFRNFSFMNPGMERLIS

With `O=C(Nc1cccc(-c2ncnc3sc(-c4ccncc4)cc23)c1)c1cccc(C(F)(F)F)c1` the IC50 (HT-29) was 0.15 µM, the IC50 [1] was > 10 µM and the IC50 [2] was > 10 µM. The IC50 [3] was > 10 µM, the IC50 [4] was > 10 µM and the IC50 [5] was > 10 µM. For the same compound, the IC50 (Caco-2) was 1.1 µM, the IC50 [6] was > 10 µM and the IC50 [7] was > 10 µM. For the same compound, the IC50 [8] was 3.1 µM, the IC50 (A-375) was 0.23 µM and the IC50 (LoVo) was 0.3 µM. For the same compound, the IC50 [9] was > 10 µM, the IC50 [10] was > 10 µM and the IC50 [11] was > 10 µM.
For `N#Cc1cnc2cc(-c3cccnc3)sc2c1-c1cccc(NC(=O)c2cccc(C(F)(F)F)c2)c1`, the IC50 [12] was > 10 µM.
With `O=C(Nc1cccc(-c2ncnc3cc(-c4cccnc4)sc23)c1)c1cccc(C(F)(F)F)c1` the IC50 [12] was > 10 µM.
In the case of `O=C(Nc1cccc(-c2ccnc3cc(-c4cccnc4)nn23)c1)c1cccc(C(F)(F)F)c1`, the IC50 [12] is reported as > 10 µM.
In the case of `N#Cc1cnc2sc(-c3ccncc3)cc2c1-c1cccc(NC(=O)c2cccc(C(F)(F)F)c2)c1`, the IC50 [12] is reported as > 10 µM.
In the case of `N#Cc1cnc2sc(-c3cccnc3)cc2c1-c1cccc(NC(=O)c2cccc(C(F)(F)F)c2)c1`, the IC50 [12] is reported as > 10 µM.
